Measurements taken from patent US9376424B2, “Methods for treating post traumatic stress disorder” (AZEVAN PHARMACEUTICALS, INC., priority 2010, dated 2016).

Columns and labels:
[1] = biological target: V2 (Homo sapiens, UniProt P30518); assay: V2 receptor inhibition data (Ki); assay type: binding; conditions: selectivity table
[2] = test system: resident male rats; assay: Resident-Intruder Model of Stress and Aggression in Rats (neuroimaging); assay type: in vivo, rat; conditions: oral administration, intruder stimulus
From the text: Resident-Intruder Model of Stress and Aggression in Rats. Neuroimaging is used to assess the blockade of stress/arousal with test compound compared to control. The effect of AVN251-HCl on functional circuitry was examined using the imaging method for awake rats. Additional details of the assay are described in Ferris et al. (2008).
Male rats in the company of a female cage mate will piloerect in the presence of a male intruder. This piloerection is a sign of stress and aggressive intent and is associated with activation of stress/arousal circuits in the brain. […] Resident male rats from six male:female pairs were imaged while fully awake. During a single imaging session, these males were treated with vehicle or AVN251-HCl (5 mg/kg).
The total volume of brain activation for resident males confronted with their mate alone, mate plus intruder, and mate plus intruder in the presence of AVN251-HCl can be viewed as 3D models. While there appears to be a general decrease in BOLD signal in major regions with AVN251-HCl treatment, sexual motivation, as assessed by the presentation of a novel receptive female, was unaffected by V1a receptor blockade.
Stress circuit activation in response to an intruder male is assessed by obtaining brain scans viewed from a caudal/dorsal perspective as translucent shells. The localization of activated voxels is mapped as 3D volumes of activation, which are composed of 10 subjects each. Once fully registered and segmented, the statistical responses for each subject are averaged on a voxel-by-voxel basis. Those averaged voxels exceeding a 2.0% threshold are shown in their appropriate spatial location. Functional images are acquired on awake rats at 4.7 T.
The 3D volumes of activation are composed from results obtained with 10 subjects in each condition. […] Particular olfactory systems measured included the anterior olfactory nucleus, olfactory tubercle, piriform cortex, n. laterial olfactory tract, and entrorhinal cortex. Particular dopaminergic systems measured included the prelimbic cortex, accumbens, ventral pallidum, medial dorsal thalamus, and ventral tegmentum.
Awake rats were imaged when presented with their mate+an intruder, a highly stressful stimulus.

[3] = biological target: T1, V1b receptor (Homo sapiens, UniProt P47901); assay: Human or rat vasopressin V1b cell-based receptor binding assay; conditions: selectivity table; read-out: inhibition data (Ki, nM), Receptor V1b
T1 construct: expressed in transfected cells; host or cells: CHO-K1 (ATCC), vector PCI-neo
T1 sequence (P47901 1-424): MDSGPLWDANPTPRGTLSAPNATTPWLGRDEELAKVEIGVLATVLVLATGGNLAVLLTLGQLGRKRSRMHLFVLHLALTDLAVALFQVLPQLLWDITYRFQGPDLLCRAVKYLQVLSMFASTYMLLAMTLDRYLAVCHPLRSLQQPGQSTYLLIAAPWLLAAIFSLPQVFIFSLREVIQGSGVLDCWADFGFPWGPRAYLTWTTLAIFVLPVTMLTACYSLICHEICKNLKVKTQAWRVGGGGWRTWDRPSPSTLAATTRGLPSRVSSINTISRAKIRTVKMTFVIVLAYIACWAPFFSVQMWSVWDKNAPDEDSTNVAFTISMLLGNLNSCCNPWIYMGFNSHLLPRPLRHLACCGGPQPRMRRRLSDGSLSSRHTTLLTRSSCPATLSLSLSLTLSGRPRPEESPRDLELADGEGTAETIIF
From the text: Human vasopression V1b receptor-expressing cells. Human vasopressin receptor 1b (hV1b) cDNA (see, Lolait et al., “Extrapituitary expression of the rat V1b vasopressin receptor gene” Proc. Natl. Acad. Sci. USA. 92:6783-7 (1995); de Keyzer et al., “Cloning and characterization of the human V3(V1b) pituitary vasopressin receptor” FEBS Lett. 356:215-20 (1994); Sugimoto et al., “Molecular cloning and functional expression of a cDNA encoding the human V1b vasopressin receptor” J. Biol. Chem. 269:27088-92 (1994)) was inserted into a mammalian cell expression vector PCI-neo (Promega) at EcoR1 site. The recombinant plasmid carrying hV1b cDNA was identified from transformed E. Coli clones and used for the transfection of Chinese hamster ovary cell (CHO-K1, ATCC). Two micrograms of hV1b receptor DNA was introduced into 10^5 CHO cells cultured in 6-well plate, using Fugene-6 mediated transfection technique (Boehringer Mannheim). Twenty-four hrs post transfection, Cells were then cultured under selection of G-418 (0.25 mg/ml) supplemented to the culture medium. Three days later, limited dilution was carried out to obtain single cell clones in 96-well plates. […]
Human or rat vasopression V1b cell-based receptor binding assay. […] Samples were counted in a liquid scintillation counter (Beckman LS3801). IC50 and Ki values were calculated using Prism Curve fitting software. […]

Sequence of V2 (P30518 whole entry): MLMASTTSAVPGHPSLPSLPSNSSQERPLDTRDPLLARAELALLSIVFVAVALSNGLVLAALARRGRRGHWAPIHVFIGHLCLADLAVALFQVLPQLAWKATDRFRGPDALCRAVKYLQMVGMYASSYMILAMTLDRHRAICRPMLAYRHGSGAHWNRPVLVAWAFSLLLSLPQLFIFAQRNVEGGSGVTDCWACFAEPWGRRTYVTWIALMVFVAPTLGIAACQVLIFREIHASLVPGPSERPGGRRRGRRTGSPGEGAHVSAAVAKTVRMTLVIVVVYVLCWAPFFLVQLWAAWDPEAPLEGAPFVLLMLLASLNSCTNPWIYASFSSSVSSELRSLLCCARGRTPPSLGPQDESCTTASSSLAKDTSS

- Ki [1]: > 1000 nM
- Ki [3]: > 1000 nM
Compound: C[C@@H](NC(=O)[C@@H](CC(=O)N1CCC(N2CCCCC2)CC1)N1C(=O)[C@@H](N2C(=O)OC[C@@H]2c2ccccc2)[C@H]1C=Cc1ccccc1)c1ccccc1 [Example 224, 2(R)-[[4-(Piperidinyl)piperidinyl]carbonylmethyl]-2-[3(S)-(4(S)-phenyloxazolidin-2-on-3-yl)-4(R)-(2-styryl)azetidin-2-on-1-yl]acetic acid N—[(R)-α-methylbenzyl]amide]
- stress and aggressive motivation compared to controls [2]: blocked stress and aggressive motivation
